Numbering of substitutions follows the chain as printed.
How the values were obtained:
pMT6 = assay: Methylation and cyclization of structurally similar terpenoids by E. coli cell lysate overexpressing pMT6; type: biochemical, Streptomyces blastmyceticus; conditions: GFP lysate as control
Description: Using E. coli cell lysate overexpressing pMT6, a range of structurally similar terpenoids for methylation and cyclization reaction was assayed (FIG. 21a). E. coli lysate overexpressing green fluorescence protein was used as a control. […] Citral was not stable and was reduced to geraniol in the presence of cell lysate. […] Compound identity was searched against the National Institute of Standards and Technology (NIST) library. […] Lastly, for the monoterpene ketone, geranylacetone, with saturated C7-C8 bond, multiple methylated products were detected based on the molecular ion.

pMT7 = pMT7 (Streptomyces blastmyceticus, UniProt A0A077K7L1, A202L/L180A/L273V/S182E/Y200F/Y65F); assay: biochemical
pMT7, sequence (A0A077K7L1 entry or part of it Y65F/L180A/S182E/Y200F/A202L/L273V): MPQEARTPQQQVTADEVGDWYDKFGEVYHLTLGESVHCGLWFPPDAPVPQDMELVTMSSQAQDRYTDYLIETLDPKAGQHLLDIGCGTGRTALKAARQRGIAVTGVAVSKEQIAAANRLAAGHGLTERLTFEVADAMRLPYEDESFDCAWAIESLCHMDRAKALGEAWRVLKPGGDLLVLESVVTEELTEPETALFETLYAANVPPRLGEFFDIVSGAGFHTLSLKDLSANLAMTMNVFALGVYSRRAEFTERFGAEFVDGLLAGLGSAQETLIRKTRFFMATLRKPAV
Description: (§1) It was calculated by dividing the pMT7 activity where no additive was added. […] It was calculated by dividing the pMT7 and pMT10 activity where no additive was added. […] All the purified enzyme reactions were done in triplicates. […] The bar chart represents the mean value of replicated reactions.
The steady-state kinetic parameters of pMT7 were determined (Table 3). […] Since pMT7 is an hexamer in solution^10, its oligomeric state before and after the reaction was examined.
(§2) Following enzyme purification, a 100 μl enzymatic reaction was setup with a final concentration of 0.5 mg/ml of enzyme, 40 mg/L psi-ionone, 0.2 mM SAM, 100 mM Tris (pH 7), 10 mM MgCl2 and 15 mM NaCl. The reaction was done in 0.2 ml PCR strips and incubated at 28° C., 1200 rpm overnight. Alongside, a control without enzyme (with 40% glycerol only) was included as negative control. The next day, cis-α-irone was extracted with 100 μl of ethyl acetate and 50 μl organic layer taken for GCMS analysis. For enzyme characterization, similar enzymatic reaction was performed, with varying concentration of psi-ionone (2-40 mg/L) and SAM (10-100 μM), and the reaction was stopped after 2 h incubation at 28° C. to ensure the enzymatic conversion is still within linear range.

pMT10 = pMT10 (Streptomyces blastmyceticus, UniProt A0A077K7L1, A202L/C156A/L180A/L273V/S182E/T91P/Y200F/Y65F); assay: biochemical
pMT10, sequence (A0A077K7L1 entry or part of it Y65F/T91P/C156A/L180A/S182E/Y200F/A202L/L273V): as the sequence (A0A077K7L1 entry or part of it Y65F/L180A/S182E/Y200F/A202L/L273V) above
Description: as §1, §2

[1] = biological target: T1, Streptomyces blastmyceticus O-methyltransferase TleD (pMT1, SEQ ID No. 3) variant pMT7, Y200F S182E L273V L180A A202L Y65F, SEQ ID No. 9 (Streptomyces blastmyceticus, UniProt A0A077K7L1, A202L/L180A/L273V/S182E/Y200F/Y65F); assay: Steady-state kinetics of purified pMT7; type: biochemical; conditions: pH 7, 28° C., 2 h
T1 sequence (A0A077K7L1 1-289 Y65F/L180A/S182E/Y200F/A202L/L273V): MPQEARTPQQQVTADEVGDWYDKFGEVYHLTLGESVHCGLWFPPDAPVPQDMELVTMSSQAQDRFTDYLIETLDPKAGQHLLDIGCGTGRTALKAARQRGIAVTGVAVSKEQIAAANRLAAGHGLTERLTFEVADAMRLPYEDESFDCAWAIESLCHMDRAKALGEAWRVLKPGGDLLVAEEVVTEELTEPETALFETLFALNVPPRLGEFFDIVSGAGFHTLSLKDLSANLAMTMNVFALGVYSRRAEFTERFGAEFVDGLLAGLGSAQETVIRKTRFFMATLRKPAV
Description: (§3) His-tag protein purification was carried out according to the manufacturer's instruction (Cube Biotech). For each enzyme, it was overexpressed in 200 ml of ZYM autoinduction media with 5 mM lactose at 20° C. for 36 hrs. Following that, cells were pelleted and resuspended with 10 ml of His-binding buffer (50 mM Tris, pH 8, 0.5M NaCl and 20 mM imidazole) supplemented with 1 mg/ml lysozyme and 3 U/ml of benzonase nuclease (Merck) and treated for 1 hour (hr) at 20° C., 300 rpm. The cells were further lysed by 2 cycles of freeze-thawing with freezing at −80° C. for 4 hrs and thawing at room temperature for 45 mins. The supernatant (soluble fraction) was obtained by centrifuging at 15,000 g for 30 mins at 4° C. […] Protein quantification and purity were determined through micro BCA assay (Pierce) and running SDS-PAGE, respectively.
(§4) To determine the purified enzyme kinetics and in vivo production, the reaction mixture was extracted with 0.5× or 1× volume of ethyl acetate and the organic phase was diluted appropriately before subjected to GCMS analysis. The samples were analyzed on an Agilent Intuvo 9000 GC system equipped with Agilent DB-WAX Ultra Inert Intuvo GC column (30 m×250 μm×0.25 μm) and Agilent 5977B mass spectrometry with high efficiency source. […] The concentration of psi-ionone and irone were calculated by interpolating with a standard curve prepared by synthetic standards.

[2] = biological target: T2, Streptomyces blastmyceticus O-methyltransferase TleD (pMT1, SEQ ID No. 3) variant pMT10, Y200F S182E L273V L180A A202L Y65F C156A T91P, SEQ ID No. 12 (Streptomyces blastmyceticus, UniProt A0A077K7L1, A202L/C156A/L180A/L273V/S182E/T91P/Y200F/Y65F); assay: Steady-state kinetics of purified pMT10; type: biochemical; conditions: pH 7, 28° C., 2 h, psi-ionone 2-40 mg/L, SAM 10-100 μM
T2 sequence (A0A077K7L1 1-289 Y65F/T91P/C156A/L180A/S182E/Y200F/A202L/L273V): T1 sequence (A0A077K7L1 1-289 Y65F/L180A/S182E/Y200F/A202L/L273V) with T91P, C156A
Description: as §3, §4

[3] = SAH analogues (0-200 μM) or excess α-irone supplemented

SMILES | methylated products in pMT6 reaction (SPME-GCMS) (pMT6) | effect on pMT7 methyltransferase activity (pMT7; [3]) | also measured
CC(C)=CCCC(C)=CC=O [Citral] | not stable |  | 
Nc1ncnc2c1ncn2[C@@H]1O[C@H](CSCC[C@H](N)C(=O)O)[C@@H](O)[C@H]1O [SAH, S-adenosyl-L-homocysteine] |  |  | IC50 (pMT7): 4.9 µM; effect on pMT7 activity (pMT7; 2 μM SAH supplemented): led to a reduction in pMT7 activity; effect on pMT7 methyltransferase activity (pMT7; 20 µM SAH supplemented): nearly abolished the methyltransferase activity; IC50 (pMT10): 3.1 µM
C[S+](CC[C@H](N)C(=O)[O-])C[C@H]1O[C@@H](n2cnc3c(N)ncnc32)[C@H](O)[C@@H]1O (stereo partly drawn) [SAM, S-adenosylmethionine] |  |  | Km ([1]; psi-ionone 2-40 mg/L, SAM 10-100 μM): 54.6 µM; Km [2]: 30.5 ± 1.3 µM
Nc1ncnc2nc[nH]c12 [adenine] |  | did not alter the methyltransferase activity significantly | 
Nc1ncnc2c1ncn2[C@@H]1O[C@H](CO)[C@@H](O)[C@H]1O [adenosine] |  | did not alter the methyltransferase activity significantly | 
CC(C)=CCC/C(C)=C/CO [geraniol] | detected methylated products |  | 
CC(=O)CC/C=C(\C)CCC=C(C)C [geranylacetone] | detected methylated products |  | 
N[C@@H](CCS)C(=O)O [homocysteine] |  | did not alter the methyltransferase activity significantly | 
C=CC(C)(O)CCC=C(C)C (stereo not drawn) [linalool] | detected methylated products |  | 
CC(=O)/C=C/C=C(\C)CCC=C(C)C [psi-ionone] |  |  | kcat ([1]; Table 3): 4.4 ± 0.2 ×10^3 h^−1
CC(=O)/C=C/C1C(C)=CCC(C)C1(C)C (stereo not drawn) [α-irone] |  | did not alter the methyltransferase activity significantly | 
